Test [1] deals with MV4:11 human cancer cell lines. As to the kind of experiment: Cellular viability / anti-proliferative assay, CellTiter-Glo, 5 day protocol. It counts as cell-based. The settings on record: Homo sapiens, MV4-11, 120 h, read-out: GI50 on cellular proliferation of MV4:11 human cancer cell lines. In short, it runs like this:
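MV-4-11 cells in IMDM with 10% FBS, 200 cells/well, exposed 5 days to 22 two-fold dilutions from 30 μM, final DMSO 0.3%. Viability read by CellTiter-Glo luminescence; GI50 from sigmoidal dose-response fit, mean of at least two replicates.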

Test [2] addresses WDR5 (Homo sapiens, UniProt P61964). As to the kind of experiment: TR-FRET competition binding assay, displacement of 10mer-Thr-FAM MLL peptide probe from His-tagged WDR5. The settings on record: WDR5-His tag (residues 24-334) 2 nM; 10mer-Thr-FAM 150 nM; 60 min, room temperature; read-out: Ki for Inhibition of WDR5 by TR-FRET assay.
Setting [3] is: MV4:11 cells, 5 day incubation, CellTiter-Glo, mean of at least two replicates.

Read-outs that look alike come from different tables or passages of the source.

Turning to `COc1cc(-c2cn[nH]c2)c2nc(C)cc(N3CCc4c(cc(Cn5ccnc5)cc4-c4cn(C)nc4C(F)(F)F)C3=O)c2c1` [Example 201, 7-((1H-imidazol-1-yl)methyl)-2-(6-methoxy-2-methyl-8-(1H-pyrazol-4-yl)quinolin-4-yl)-5-(1-methyl-3-(trifluoromethyl)-1H-pyrazol-4-yl)-3,4-dihydroisoquinolin-1(2H)-one], in test [1] (setting [3]), the GI50 was determined as 23 nM. Also, the Ki (commonly the dissociation constant of the complex between target and ligand, obtained from inhibition or displacement) in test [2] amounted to 0.023 nM.
With `COc1cnc2cc(C)cc(N3CCc4c(cc(Cn5ccnc5)cc4-c4cn(C)nc4C(F)(F)F)C3=O)c2c1` [Example 202, 7-((1H-Imidazol-1-yl)methyl)-2-(3-methoxy-7-methylquinolin-5-yl)-5-(1-methyl-3-(trifluoromethyl)-1H-pyrazol-4-yl)-3,4-dihydroisoquinolin-1(2H)-one], the GI50 in test [1] (setting [3]) is less than 20 nM. For the same compound, the Ki in test [2] is 0.02 nM.
In the same order, the values of `Cc1cc(N2CCc3c(cc(Cn4ccnc4)cc3-c3cn(C)nc3C(F)(F)F)C2=O)c2cc(N3CC(F)C3)cc(C#N)c2n1` [Example 203, 4-(7-((1H-Imidazol-1-yl)methyl)-5-(1-methyl-3-(trifluoromethyl)-1H-pyrazol-4-yl)-1-oxo-3,4-dihydroisoquinolin-2(1H)-yl)-6-(3-fluoroazetidin-1-yl)-2-methylquinoline-8-carbonitrile] are 49 nM and 0.025 nM.
In the same order, the values of `CCc1cc(C#N)c2nccc(N3CCc4c(cc(Cn5ccnc5)cc4-c4cn(C)nc4C(F)(F)F)C3=O)c2c1` [Example 204, 4-(7-((1H-Imidazol-1-yl)methyl)-5-(1-methyl-3-(trifluoromethyl)-1H-pyrazol-4-yl)-1-oxo-3,4-dihydroisoquinolin-2(1H)-yl)-6-ethylquinoline-8-carbonitrile] are 22 nM and less than 0.02 nM.
In the same order, the values of `COc1cnc2c(C)ccc(N3CCc4c(cc(Cn5ccnc5)cc4-c4cn(C)nc4C(F)(F)F)C3=O)c2c1` [Example 206, 7-((1H-Imidazol-1-yl)methyl)-2-(3-methoxy-8-methylquinolin-5-yl)-5-(1-methyl-3-(trifluoromethyl)-1H-pyrazol-4-yl)-3,4-dihydroisoquinolin-1(2H)-one] are 43 nM and 0.022 nM.
In the case of `CCc1cc2c(N3CCc4c(cc(Cn5ccnc5)cc4-c4cn(C)nc4C(F)(F)F)C3=O)ccnc2c(OC)n1` [Example 207, 7-((1H-Imidazol-1-yl)methyl)-2-(6-ethyl-8-methoxy-1,7-naphthyridin-4-yl)-5-(1-methyl-3-(trifluoromethyl)-1H-pyrazol-4-yl)-3,4-dihydroisoquinolin-1(2H)-one], the GI50 in test [1] (setting [3]) was less than 20 nM. Besides, the Ki in test [2] was less than 0.02 nM.
In the case of `CCc1cc(N2CCn3cnnc3C2)c2nccc(N3CCc4c(cc(Cn5ccnc5)cc4-c4cn(C)nc4C(F)(F)F)C3=O)c2c1` [Example 208, 7-((1H-Imidazol-1-yl)methyl)-2-(8-(5,6-dihydro-[1,2,4]triazolo[4,3-a]pyrazin-7(8H)-yl)-6-ethylquinolin-4-yl)-5-(1-methyl-3-(trifluoromethyl)-1H-pyrazol-4-yl)-3,4-dihydroisoquinolin-1(2H)-one], the GI50 in test [1] (setting [3]) stood at 55 nM. Besides, the Ki in test [2] is less than 0.02 nM.
In the case of `CCc1cc(C(=O)NCCNC(=O)c2cnccn2)c2nccc(N3CCc4c(cc(Cn5ccnc5)cc4-c4cn(C)nc4C(F)(F)F)C3=O)c2c1` [Example 209, 4-(7-((1H-Imidazol-1-yl)methyl)-5-(1-methyl-3-(trifluoromethyl)-1H-pyrazol-4-yl)-1-oxo-3,4-dihydroisoquinolin-2(1H)-yl)-6-ethyl-N-(2-(pyrazine-2-carboxamido)ethyl)quinoline-8-carboxamide], in test [1] (setting [3]), the GI50 is less than 20 nM. Moreover, the Ki in test [2] is less than 0.02 nM.
For `CCc1cnc2cncc(N3CCc4c(cc(Cn5ccnc5)cc4-c4cn(C)nc4C(F)(F)F)C3=O)c2c1` [Example 211, 7-((1H-imidazol-1-yl)methyl)-2-(3-ethyl-1,7-naphthyridin-5-yl)-5-(1-methyl-3-(trifluoromethyl)-1H-pyrazol-4-yl)-3,4-dihydroisoquinolin-1(2H)-one], in that order: 20 nM and less than 0.02 nM.
For `CCc1cc(C(=O)NCCNC(C)=O)c2nccc(N3CCc4c(cc(Cn5ccnc5)cc4-c4cn(C)nc4C(F)(F)F)C3=O)c2c1` [Example 212, 4-(7-((1H-Imidazol-1-yl)methyl)-5-(1-methyl-3-(trifluoromethyl)-1H-pyrazol-4-yl)-1-oxo-3,4-dihydroisoquinolin-2(1H)-yl)-N-(2-acetamidoethyl)-6-ethylquinoline-8-carboxamide], in that order: 35 nM and less than 0.02 nM.
Take `CCc1cc(C(=O)NCCNC(=O)c2ccncc2)c2nccc(N3CCc4c(cc(Cn5ccnc5)cc4-c4cn(C)nc4C(F)(F)F)C3=O)c2c1` [Example 213, 4-(7-((1H-imidazol-1-yl)methyl)-5-(1-methyl-3-(trifluoromethyl)-1H-pyrazol-4-yl)-1-oxo-3,4-dihydroisoquinolin-2(1H)-yl)-6-ethyl-N-(2-(isonicotinamido)ethyl)quinoline-8-carboxamide]: the GI50 in test [1] (setting [3]) is less than 20 nM. Besides, the inhibition constant Ki in test [2] was less than 0.02 nM.
Take `COc1cnc2cncc(N3CCc4c(cc(Cn5ccnc5)cc4-c4cn(C)nc4C(F)(F)F)C3=O)c2c1` [Example 214, 7-((1H-imidazol-1-yl)methyl)-2-(3-methoxy-1,7-naphthyridin-5-yl)-5-(1-methyl-3-(trifluoromethyl)-1H-pyrazol-4-yl)-3,4-dihydroisoquinolin-1(2H)-one]: the GI50 in test [1] (setting [3]) was less than 20 nM. Also, the Ki in test [2] was less than 0.02 nM.
In the same order, the values of `CCc1cc(C(=O)NCCNC(=O)c2cscn2)c2nccc(N3CCc4c(cc(Cn5ccnc5)cc4-c4cn(C)nc4C(F)(F)F)C3=O)c2c1` [Example 216, N-(2-(4-(7-((1H-Imidazol-1-yl)methyl)-5-(1-methyl-3-(trifluoromethyl)-1H-pyrazol-4-yl)-1-oxo-3,4-dihydroisoquinolin-2(1H)-yl)-6-ethylquinoline-8-carboxamido)ethyl)thiazole-4-carboxamide] are less than 20 nM and less than 0.02 nM.
For `CCc1cc(C(=O)NCC2CN(C(C)=O)C2)c2nccc(N3CCc4c(cc(Cn5ccnc5)cc4-c4cn(C)nc4C(F)(F)F)C3=O)c2c1` [Example 218, 4-(7-((1H-Imidazol-1-yl)methyl)-5-(1-methyl-3-(trifluoromethyl)-1H-pyrazol-4-yl)-1-oxo-3,4-dihydroisoquinolin-2(1H)-yl)-N-((1-acetylazetidin-3-yl)methyl)-6-ethylquinoline-8-carboxamide], in that order: 21 nM and less than 0.02 nM.
Take `CCc1cc(C(=O)NCC2CN(C(=O)c3ccncc3)C2)c2nccc(N3CCc4c(cc(Cn5ccnc5)cc4-c4cn(C)nc4C(F)(F)F)C3=O)c2c1` [Example 219, 4-(7-((1H-Imidazol-1-yl)methyl)-5-(1-methyl-3-(trifluoromethyl)-1H-pyrazol-4-yl)-1-oxo-3,4-dihydroisoquinolin-2(1H)-yl)-6-ethyl-N-((1-isonicotinoylazetidin-3-yl)methyl)quinoline-8-carboxamide]: the GI50 in test [1] (setting [3]) is less than 20 nM. In addition, the Ki in test [2] was less than 0.02 nM.
For `CCc1cc(C(=O)NCC2CN(C(=O)c3cscn3)C2)c2nccc(N3CCc4c(cc(Cn5ccnc5)cc4-c4cn(C)nc4C(F)(F)F)C3=O)c2c1` [Example 220, 4-(7-((1H-Imidazol-1-yl)methyl)-5-(1-methyl-3-(trifluoromethyl)-1H-pyrazol-4-yl)-1-oxo-3,4-dihydroisoquinolin-2(1H)-yl)-6-ethyl-N-((1-(thiazole-4-carbonyl)azetidin-3-yl)methyl)quinoline-8-carboxamide], the GI50 in test [1] (setting [3]) was less than 20 nM. In test [2], the Ki was less than 0.02 nM.
For `COc1cnc2cc(C)cc(N3CCc4c(cc(Cn5ccnc5N)cc4-c4cn(C)nc4C(F)(F)F)C3=O)c2c1` [Example 221, 7-((2-Amino-1H-imidazol-1-yl)methyl)-2-(3-methoxy-7-methylquinolin-5-yl)-5-(1-methyl-3-(trifluoromethyl)-1H-pyrazol-4-yl)-3,4-dihydroisoquinolin-1(2H)-one], the GI50 in test [1] (setting [3]) is less than 20 nM. In addition, the Ki in test [2] amounted to 0.024 nM.
Turning to `CCc1cc(C(=O)NC2CN(C(=O)C3CCOCC3)C2)c2nccc(N3CCc4c(cc(Cn5ccnc5)cc4-c4cn(C)nc4C(F)(F)F)C3=O)c2c1` [Example 223, 4-(7-((1H-Imidazol-1-yl)methyl)-5-(1-methyl-3-(trifluoromethyl)-1H-pyrazol-4-yl)-1-oxo-3,4-dihydroisoquinolin-2(1H)-yl)-6-ethyl-N-(1-(tetrahydro-2H-pyran-4-carbonyl)azetidin-3-yl)quinoline-8-carboxamide], the GI50 in test [1] (setting [3]) was less than 20 nM. For the same compound, the Ki in test [2] was less than 0.02 nM.
For `CCc1cc(C(=O)NC2CN(C(=O)c3cscn3)C2)c2nccc(N3CCc4c(cc(Cn5ccnc5)cc4-c4cn(C)nc4C(F)(F)F)C3=O)c2c1` [Example 228, 4-(7-((1H-Imidazol-1-yl)methyl)-5-(1-methyl-3-(trifluoromethyl)-1H-pyrazol-4-yl)-1-oxo-3,4-dihydroisoquinolin-2(1H)-yl)-6-ethyl-N-(1-(thiazole-4-carbonyl)azetidin-3-yl)quinoline-8-carboxamide], in that order: less than 20 nM and less than 0.02 nM.
As for `CCc1cc(N)c2nccc(N3CCc4c(cc(Cn5ccnc5)cc4-c4cn(C)nc4C(F)(F)F)C3=O)c2c1` [Example 230, 7-((1H-Imidazol-1-yl)methyl)-2-(8-amino-6-ethylquinolin-4-yl)-5-(1-methyl-3-(trifluoromethyl)-1H-pyrazol-4-yl)-3,4-dihydroisoquinolin-1(2H)-one], the GI50 in test [1] turned out to be 54 nM. The Ki in test [2] was less than 0.02 nM.

For the origin of these results see patent US12692249B2, “WDR5 inhibitors and modulators” (Vanderbilt University, priority 2019, dated 2026).
